Data set [1] is described as follows: Pharmacokinetics of four components of ESZWD in CHF-HKYd rat serum by UPLC-MS/MS. The format is in vivo. Further details: AUC(0-t) / AUC(0−t) / AUC(0-inf) / AUC(0−∞): concentration or dose not given beside the values. The conditions noted are these: CHF-HKYd rat serum after oral administration of ESZWD, mean ± SD, n = 6. How it is done: All rats were randomly divided into control group, model group, ESZWD low-dose (3.96 g/kg), medium-dose (7.92 g/kg), high-dose (15.84 g/kg) groups, and positive control group (benazepril, 0.5 mg/kg), with six rats in each group. The CHF-HKYd was established after 1 week of feeding. ESZWD and benazepril were administered by gavage separately for 4 weeks after successful modeling, except for the control group. Blood was collected for 5, 10, 20, 30, 45 min, 1, 2, 4, 6, 8, 12, and 24 h, standing for 2 h and centrifuged at 4°C, 3,500 rpm for 10 min, the supernatant was retained. The state of rats was observed and the urine volume at 24 h was measured. The structure and function of rat heart were evaluated by doppler ultrasonography. Serum biomarkers including myocardial injury indicators NT-proBNP, angiotensinII (AngII), aldosterone (ALD), reactive oxygen species (ROS), superoxide dismutase (SOD), malondialdehyde (MDA), and tumor necrosis factor α (TNF-α) and interleukin 6 (IL-6) were detected by ELISA.
Chromatographic analysis was performed using ACQUITY UPLC BEH C18 column (2.1 × 50 mm, […]), the mobile phase was acetonitrile (A) 0.1% formic acid water (B), the flow rate was set as 0.2 mL·min^−1, the column temperature was 35°C, the injection volume was 2 μL, and the gradient conditions were as follows: 0–8 min: 6–11%A, 8–23 min: 11–19%A, 23–45 min: 19–38%A, 45–55 min: 38–47%A, 55–55.1 min: 47–52%A, 55.1–65 min: 52–90%A, 65–66 min: 90–6%A of UPLC-Q-TOF/MS analysis and 0–3 min: 8–10%A, 3–3.5 min: 10–70% A, 3.5–5: 70–80%A, 5–5.1 min: 80–8% A, 5.1–6 min: 8% A of UPLC-MS/MS.
Mass spectrometric detection of UPLC-MS/MS analysis was carried out on electrospray ionization (ESI) ion source, multiple reaction monitoring (MRM) mode, ion spray voltage of 5,500 V, the curtain gas and collision gas were 40 and 9 kPa, respectively, declustering potential (DP) and collision voltage (CE) are shown in Table 1.

The nature of data set [2]: Stability of four compounds in rat serum (UPLC-MS/MS method validation). As to conditions: n = 5; for Stability, Room temperature, Mean ± SD: 4 h at room temperature (25°C); for Stability, Automatic sampler, Mean ± SD: 8 h in the automatic sampler; for Stability, Long-term freeze, Mean ± SD: 7 d at −80°C; for Stability, Multigelation, Mean ± SD: three freeze and thaw cycles.
Description: (§1) The stability of all probe drugs was evaluated by LQC and HQC samples under different experimental conditions, including short-term stability [4 h at room temperature (25°C), 8 h in the automatic sampler, and three freeze and thaw cycles, respectively] and long-term stability (7 d at −80°C).

For data set [3] the following is noted: rat; for Stability, Room temperature, Mean ± SD: 4 h; for Stability, Automatic sampler, Mean ± SD: 8 h; for Stability, Long-term freeze, Mean ± SD: 7 d.
Description: as §1
The mark [4] stands for this setting: added 20 ng/mL (salsolinol) or 1 ng/mL (others).
Where [5] appears, read: added 100 ng/mL (salsolinol) or 10 ng/mL (others).
The mark [6] stands for this setting: added 750 ng/mL (salsolinol) or 150 ng/mL (others).

Like-named read-outs stand apart in the source and are kept apart here.

For `C[C@@H]1NCCc2cc(O)c(O)cc21` [Salsolinol], in data set [1], the “AUC(0−t)” value was 2,327 ± 261.0 ng/mL·h; the “AUC(0−∞)” value is 2,344 ± 265.7 ng/mL·h; the CL/F amounted to 143.8 ± 16 mL/min/kg; the Cmax (as a rule, the maximum level reached in the sampled fluid or tissue) was found to be 314.2 ± 36.84 ng/mL. Further, in data set [1], the T1/2 turned out to be 3.271 ± 0.58 h; the time to peak (Tmax) (in general, the time at which the peak concentration occurs) was found to be 1.25 ± 0.59 h; the V/F was 40.68 ± 9.03 L/kg. The T1/2 result in data set [1] (listed as salsolinol) is listed as “about 3 h”. For the same compound, in data set [2] (setting [4]), the “Stability, Room temperature, Mean ± SD” value was determined as 21.07 ± 0.74 ng/mL; the “Stability, Automatic sampler, Mean ± SD” value stood at 20.68 ± 0.61 ng/mL; the “Stability, Long-term freeze, Mean ± SD” value was 20.9 ± 1.2 ng/mL; the “Stability, Multigelation, Mean ± SD” value stood at 21.15 ± 0.54 ng/mL. For the same compound, in data set [2] (setting [5]), the “Stability, Room temperature, Mean ± SD” value turned out to be 112.2 ± 4.13 ng/mL; the “Stability, Automatic sampler, Mean ± SD” value amounted to 111.3 ± 2.63 ng/mL; the “Stability, Long-term freeze, Mean ± SD” value is 103.9 ± 6.16 ng/mL; the “Stability, Multigelation, Mean ± SD” value stood at 110.7 ± 1.34 ng/mL. In data set [2] (setting [6]), the “Stability, Room temperature, Mean ± SD” value is 700.5 ± 49.6 ng/mL; the “Stability, Automatic sampler, Mean ± SD” value turned out to be 716.3 ± 22.1 ng/mL; the “Stability, Long-term freeze, Mean ± SD” value was found to be 685.1 ± 43.66 ng/mL; the “Stability, Multigelation, Mean ± SD” value came to 727.6 ± 68.05 ng/mL.
`CCN1C[C@]2(COC)[C@H](O)C[C@H](OC)[C@@]34[C@@H]5C[C@@]6(O)[C@H](OC(=O)c7ccccc7)[C@@H]5[C@@](OC(C)=O)([C@@H]([C@H](OC)[C@H]23)[C@@H]14)[C@@H](O)[C@@H]6OC` [Aconitine] gave a V/F in data set [1] of 2679 ± 1574 L/kg. In data set [1] (Sprague-Dawley (SD), in vivo), the AUC(0-inf) – broadly, the area under the concentration-time curve extrapolated to infinity – worked out at 50.1 ± 16 ng·h/mL; the AUC(0-t) (usually exposure summed from dosing to a finite time, without extrapolation to infinity) is 48.9 ± 16.4 ng·h/mL; the half-life (usually the time in which the quantity being followed falls by half) was 4.24 ± 1.83 h. In addition, in data set [1] (Sprague-Dawley (SD), in vivo, read-out: CL/F (converted)), the CL/F was 7080 mL/min/kg. Moreover, the maximum concentration (Cmax) in data set [1] (Sprague-Dawley (SD), in vivo, read-out: Cmax) is 8.96 ± 2.22 ng/mL. Besides, the Tmax in data set [1] (Sprague-Dawley (SD), in vivo, read-out: Tmax) came to 0.75 h. Moreover, the half-life in data set [1] (Sprague-Dawley, in vivo) is about 4 h. For the same compound, in data set [2] (setting [4]), the “Stability, Room temperature, Mean ± SD” value stood at 1.049 ± 0.05 ng/mL; the “Stability, Automatic sampler, Mean ± SD” value stood at 1.087 ± 0.12 ng/mL; the “Stability, Long-term freeze, Mean ± SD” value was found to be 1.082 ± 0.05 ng/mL; the “Stability, Multigelation, Mean ± SD” value worked out at 1.125 ± 0.11 ng/mL. In addition, in data set [2] (setting [5]), the “Stability, Room temperature, Mean ± SD” value was 9.558 ± 0.29 ng/mL; the “Stability, Automatic sampler, Mean ± SD” value turned out to be 9.053 ± 0.24 ng/mL; the “Stability, Long-term freeze, Mean ± SD” value is 10.05 ± 0.97 ng/mL; the “Stability, Multigelation, Mean ± SD” value came to 9.042 ± 0.48 ng/mL. Moreover, in data set [2] (setting [6]), the “Stability, Room temperature, Mean ± SD” value amounted to 163.7 ± 5.25 ng/mL; the “Stability, Automatic sampler, Mean ± SD” value was determined as 162.6 ± 9.72 ng/mL; the “Stability, Long-term freeze, Mean ± SD” value amounted to 157.4 ± 3.86 ng/mL; the “Stability, Multigelation, Mean ± SD” value was 156.9 ± 8.39 ng/mL.
As to `C[C@@]12C[C@@]3(O)O[C@@H](O1)[C@]1(COC(=O)c4ccccc4)[C@H]3C[C@@]12O[C@@H]1O[C@H](CO)[C@@H](O)[C@H](O)[C@H]1O` [Paeoniflorin], in data set [3] (1 ng/mL), the “Stability, Multigelation, Mean ± SD” value came to 1.012 ± 0.07 ng/mL; the “Stability, Room temperature, Mean ± SD” value turned out to be 1.046 ± 0.06 ng/mL; the “Stability, Automatic sampler, Mean ± SD” value was 1.053 ± 0.02 ng/mL; the “Stability, Long-term freeze, Mean ± SD” value turned out to be 1.010 ± 0.08 ng/mL. Further, in data set [3] (10 ng/mL), the “Stability, Multigelation, Mean ± SD” value stood at 10.41 ± 0.73 ng/mL; the “Stability, Room temperature, Mean ± SD” value was 10.18 ± 0.72 ng/mL; the “Stability, Automatic sampler, Mean ± SD” value was determined as 10.51 ± 0.98 ng/mL; the “Stability, Long-term freeze, Mean ± SD” value is 10.19 ± 0.97 ng/mL. For the same compound, in data set [3] (150 ng/mL), the “Stability, Multigelation, Mean ± SD” value is 162.2 ± 9.25 ng/mL; the “Stability, Room temperature, Mean ± SD” value turned out to be 160.7 ± 5.68 ng/mL; the “Stability, Automatic sampler, Mean ± SD” value was 160.2 ± 6.15 ng/mL; the “Stability, Long-term freeze, Mean ± SD” value came out at 149.6 ± 11.70 ng/mL. Moreover, the V/F in data set [1] is 41.20 ± 0.83 L/kg. Also, in data set [1] (Sprague-Dawley (SD)), the AUC(0-inf) stood at 2260 ± 179 ng·h/mL, the AUC(0-t) is 2240 ± 178 ng·h/mL and the half-life is 3.22 ± 0.34 h. Further, the CL/F in data set [1] (Sprague-Dawley (SD), read-out: CL/F (converted)) is 148 mL/min/kg. In addition, the Cmax in data set [1] (Sprague-Dawley (SD), read-out: Cmax) is 198 ± 27.7 ng/mL. Moreover, in data set [1] (Sprague-Dawley (SD), read-out: Tmax), the Tmax was 6 ± 2.54 h. The compound also had a half-life in data set [1] (Sprague-Dawley) of about 3 h.
As to Miltrione, in data set [1], the “AUC(0−t)” value is reported as 1,098 ± 69.72 ng/mL·h, the “AUC(0−∞)” value is 1,125 ± 84.73 ng/mL·h, the CL/F amounted to 297.8 ± 23 mL/min/kg and the Cmax is reported as 178.9 ± 16.24 ng/mL. In addition, in data set [1], the T1/2 stood at 4.25 ± 0.82 h, the Tmax stood at 1.00 ± 0.00 h and the V/F is given as 108.7 ± 15.80 L/kg.

The values are drawn from publication PMC9515952, “Tentative exploration of pharmacodynamic substances: Pharmacological effects, chemical compositions, and multi-components pharmacokinetic characteristics of ESZWD in CHF-HKYd rats” (Frontiers in Cardiovascular Medicine, 2022).
